Laboratory results reported in patent US9809623B2, “α4β7 peptide monomer and dimer antagonists” (Protagonist Therapeutics, Inc., priority 2014, dated 2017).
Numbered stars: 1 amine (or outer) side, 2 acyl side, 3 side chain; on linkers, the order of the positions; unused ones are H or OH. Bridge positions count the residues as written; N and C are the ends. Square brackets hold non-standard residues; d marks the D form. Peptide text beside a SMILES is read from it. I, II: the chains in the order shown. * marks the point of attachment. X1 = O=C(CCOCCOCCOCCOCCOCCOCCOCCOCCOCCOCCOCCOCCOCCOCCOCCOCCOCCOCCOCCOCCOCCOCCOCCOCCOCCOCCC(=O)[*:2])[*:1]; Phe(4-COOH) = N[C@@H](Cc1ccc(C(=O)O)cc1)C(=O)O; Phe(4-tBu) = CC(C)(C)c1ccc(C[C@H](N)C(=O)O)cc1; Phe(2,4-Cl2) = N[C@@H](Cc1ccc(Cl)cc1Cl)C(=O)O; 2Nal = N[C@@H](Cc1ccc2ccccc2c1)C(=O)O; Diglycolyl = O=C(COCC(=O)[*:2])[*:1]; NMeR = CN[C@@H](CCCNC(=N)N)C(=O)O; Palmitoyl = CCCCCCCCCCCCCCCC(=O)*; Myristoyl = CCCCCCCCCCCCCC(=O)*; Tic = O=C(O)[C@@H]1Cc2ccccc2CN1; β3hE = N[C@@H](CCC(=O)O)CC(=O)O; Pen = CC(C)(S)[C@H](N)C(=O)O; Lauroyl = CCCCCCCCCCCC(=O)*; Hexanoyl = CCCCCC(=O)*

What follows are compounds tested against α4β7 (Homo sapiens, UniProt P13612+P26010) (assay: α4β7-MAdCAM Cell Adhesion Assay (RPMI 8866 human cells)). Settings: Table 3-B, Potency (α4β7); range classes; read-out: α4β7 cell (Hu) IC50.
Format: cell-based
Parameters: host or cells: RPMI 8866 human B lymphoblastoid cells
How it was run: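 Adhesion read-out: MTT absorbance at 570 nm minus no-cell wells, after three washes. Plates coated with rh MAdCAM-1/Fc received peptide dilutions plus 200,000 RPMI 8866 cells in Mn2+ (1 mM)-supplemented DMEM, 0.1% BSA, HEPES pH 7, incubated 30-45 min, 37 °C.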

α4β7, sequence (P13612 34-1032): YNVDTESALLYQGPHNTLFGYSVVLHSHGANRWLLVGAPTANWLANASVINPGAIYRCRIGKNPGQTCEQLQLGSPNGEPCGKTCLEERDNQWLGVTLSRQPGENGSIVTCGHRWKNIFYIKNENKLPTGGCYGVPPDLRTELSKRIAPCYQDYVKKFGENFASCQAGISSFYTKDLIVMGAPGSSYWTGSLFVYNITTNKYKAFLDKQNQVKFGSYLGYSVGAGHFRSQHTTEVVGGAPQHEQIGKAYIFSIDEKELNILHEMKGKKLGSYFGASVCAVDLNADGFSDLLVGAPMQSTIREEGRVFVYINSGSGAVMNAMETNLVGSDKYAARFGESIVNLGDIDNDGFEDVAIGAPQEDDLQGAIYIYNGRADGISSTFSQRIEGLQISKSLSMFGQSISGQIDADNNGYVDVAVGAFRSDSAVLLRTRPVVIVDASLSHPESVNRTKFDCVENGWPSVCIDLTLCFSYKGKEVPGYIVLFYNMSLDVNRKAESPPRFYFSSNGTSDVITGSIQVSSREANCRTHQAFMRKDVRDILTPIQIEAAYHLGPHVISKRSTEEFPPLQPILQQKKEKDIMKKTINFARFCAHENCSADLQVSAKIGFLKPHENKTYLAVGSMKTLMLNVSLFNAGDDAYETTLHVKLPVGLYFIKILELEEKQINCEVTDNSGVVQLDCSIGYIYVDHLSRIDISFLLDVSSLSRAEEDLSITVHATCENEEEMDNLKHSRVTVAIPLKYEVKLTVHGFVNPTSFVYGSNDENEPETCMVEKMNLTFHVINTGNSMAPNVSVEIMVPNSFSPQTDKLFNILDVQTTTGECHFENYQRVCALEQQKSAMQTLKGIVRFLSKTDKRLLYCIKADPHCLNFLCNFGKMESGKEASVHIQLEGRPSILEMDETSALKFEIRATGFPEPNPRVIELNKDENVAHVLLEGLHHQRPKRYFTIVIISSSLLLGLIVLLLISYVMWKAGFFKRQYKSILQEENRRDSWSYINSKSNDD
α4β7, sequence (P26010 20-798): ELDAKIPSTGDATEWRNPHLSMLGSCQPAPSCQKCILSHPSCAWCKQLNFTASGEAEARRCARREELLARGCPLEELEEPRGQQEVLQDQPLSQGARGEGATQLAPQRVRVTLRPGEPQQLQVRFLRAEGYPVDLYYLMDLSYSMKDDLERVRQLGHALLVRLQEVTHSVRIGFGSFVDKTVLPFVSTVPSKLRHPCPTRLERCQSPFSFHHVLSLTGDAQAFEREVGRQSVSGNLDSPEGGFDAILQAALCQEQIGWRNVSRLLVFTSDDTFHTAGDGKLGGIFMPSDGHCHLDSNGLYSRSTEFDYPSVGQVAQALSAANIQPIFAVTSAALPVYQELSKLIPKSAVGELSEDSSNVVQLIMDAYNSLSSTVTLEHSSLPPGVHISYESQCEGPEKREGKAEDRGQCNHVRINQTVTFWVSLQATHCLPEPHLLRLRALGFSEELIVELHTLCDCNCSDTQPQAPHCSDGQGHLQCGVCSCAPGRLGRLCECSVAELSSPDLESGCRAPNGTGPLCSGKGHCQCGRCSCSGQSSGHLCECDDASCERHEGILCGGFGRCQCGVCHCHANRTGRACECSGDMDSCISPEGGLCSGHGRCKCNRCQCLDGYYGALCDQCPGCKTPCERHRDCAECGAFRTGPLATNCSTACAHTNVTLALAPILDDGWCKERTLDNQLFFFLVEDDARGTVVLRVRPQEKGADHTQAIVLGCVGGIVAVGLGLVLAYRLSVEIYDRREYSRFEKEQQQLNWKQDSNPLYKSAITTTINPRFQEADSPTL

Row | Compound | IC50
1 | CC(=O)N[C@@H]1C(=O)N(C)[C@@H](CCCNC(=N)N)C(=O)N[C@@H](CO)C(=O)N[C@@H](CC(=O)O)C(=O)N[C@@H]([C@@H](C)O)C(=O)N[C@@H](CC(C)C)C(=O)N[C@H](C(=O)N[C@@H](Cc2ccc3ccccc3c2)C(=O)N2Cc3ccccc3C[C@H]2C(=O)N[C@H](CCCCNC(=O)COCC(=O)NCCCC[C@@H](NC(=O)[C@@H]2Cc3ccccc3CN2C(=O)[C@H](Cc2ccc3ccccc3c2)NC(=O)[C@H]2NC(=O)[C@H](CC(C)C)NC(=O)[C@H]([C@@H](C)O)NC(=O)[C@H](CC(=O)O)NC(=O)[C@H](CO)NC(=O)[C@H](CCCNC(=N)N)N(C)C(=O)[C@@H](NC(C)=O)C(C)(C)SSC2(C)C)C(N)=O)C(N)=O)C(C)(C)SSC1(C)C [compound 121] (I: Ac-[Pen][NMeR]SDTL[Pen][2Nal][Tic][dK]-NH2 / II: Ac-[Pen][NMeR]SDTL[Pen][2Nal][Tic][dK]-NH2; disulfide I:1-I:7, II:1-II:7; linker I:10-II:10 via Diglycolyl) | 100 to 500 nM
2 | CCCCCCCCCCCC(=O)N[C@@H]1C(=O)N(C)[C@@H](CCCNC(=N)N)C(=O)N[C@@H](CO)C(=O)N[C@@H](CC(=O)O)C(=O)N[C@@H]([C@@H](C)O)C(=O)N[C@@H](CC(C)C)C(=O)N[C@H](C(=O)N[C@@H](Cc2ccc(C(C)(C)C)cc2)C(=O)N[C@@H](CCC(=O)O)CC(=O)N[C@H](CCCCN)C(N)=O)C(C)(C)SSC1(C)C [compound 179] (Lauroyl-[Pen][NMeR]SDTL[Pen][Phe(4-tBu)][β3hE][dK]-NH2; disulfide 1-7) | 100 to 500 nM
3 | CC(=O)N[C@H]1CSSC(C)(C)[C@@H](C(=O)N[C@@H](Cc2c[nH]c3ccccc23)C(=O)N[C@H](CCCCNC(=O)CCOCCOCCOCCOCCOCCOCCOCCOCCOCCOCCOCCOCCOCCOCCOCCOCCOCCOCCOCCOCCOCCOCCOCCOCCOCCOCCC(=O)NCCCC[C@@H](NC(=O)[C@H](Cc2c[nH]c3ccccc23)NC(=O)[C@H]2NC(=O)[C@H](CC(C)C)NC(=O)[C@H]([C@@H](C)O)NC(=O)[C@H](CC(=O)O)NC(=O)[C@H](CO)NC(=O)[C@H](CCCNC(=N)N)N(C)C(=O)[C@@H](NC(C)=O)CSSC2(C)C)C(N)=O)C(N)=O)NC(=O)[C@H](CC(C)C)NC(=O)[C@H]([C@@H](C)O)NC(=O)[C@H](CC(=O)O)NC(=O)[C@H](CO)NC(=O)[C@H](CCCNC(=N)N)N(C)C1=O [compound 37] (I: Ac-C[NMeR]SDTL[Pen]W[dK]-NH2 / II: Ac-C[NMeR]SDTL[Pen]W[dK]-NH2; disulfide I:1-I:7, II:1-II:7; linker I:9-II:9 via X1) | 100 to 500 nM
4 | CCCCCC(=O)N[C@@H]1C(=O)N(C)[C@@H](CCCNC(=N)N)C(=O)N[C@@H](CO)C(=O)N[C@@H](CC(=O)O)C(=O)N[C@@H]([C@@H](C)O)C(=O)N[C@@H](CC(C)C)C(=O)N[C@H](C(=O)N[C@@H](Cc2ccc(C(C)(C)C)cc2)C(=O)N[C@@H](CCC(=O)O)CC(=O)N[C@H](CCCCN)C(N)=O)C(C)(C)SSC1(C)C [compound 176] (Hexanoyl-[Pen][NMeR]SDTL[Pen][Phe(4-tBu)][β3hE][dK]-NH2; disulfide 1-7) | 50 to 100 nM
5 | CC(=O)N[C@@H]1C(=O)N(C)[C@@H](CCCNC(=N)N)C(=O)N[C@@H](CO)C(=O)N[C@@H](CC(=O)O)C(=O)N[C@@H]([C@@H](C)O)C(=O)N[C@@H](CC(C)C)C(=O)N[C@H](C(=O)N[C@@H](Cc2ccc3ccccc3c2)C(=O)N[C@H](Cc2ccccc2)C(=O)N[C@H](CCCCNC(=O)COCC(=O)NCCCC[C@@H](NC(=O)[C@@H](Cc2ccccc2)NC(=O)[C@H](Cc2ccc3ccccc3c2)NC(=O)[C@H]2NC(=O)[C@H](CC(C)C)NC(=O)[C@H]([C@@H](C)O)NC(=O)[C@H](CC(=O)O)NC(=O)[C@H](CO)NC(=O)[C@H](CCCNC(=N)N)N(C)C(=O)[C@@H](NC(C)=O)C(C)(C)SSC2(C)C)C(N)=O)C(N)=O)C(C)(C)SSC1(C)C [compound 117] (I: Ac-[Pen][NMeR]SDTL[Pen][2Nal][dF][dK]-NH2 / II: Ac-[Pen][NMeR]SDTL[Pen][2Nal][dF][dK]-NH2; disulfide I:1-I:7, II:1-II:7; linker I:10-II:10 via Diglycolyl) | 100 to 500 nM
6 | CCCCCCCCCCCCCCCC(=O)N[C@@H]1C(=O)N(C)[C@@H](CCCNC(=N)N)C(=O)N[C@@H](CO)C(=O)N[C@@H](CC(=O)O)C(=O)N[C@@H]([C@@H](C)O)C(=O)N[C@@H](CC(C)C)C(=O)N[C@H](C(=O)N[C@@H](Cc2ccc(C(C)(C)C)cc2)C(=O)N[C@@H](CCC(=O)O)CC(=O)N[C@H](CCCCN)C(N)=O)C(C)(C)SSC1(C)C [compound 178] (Palmitoyl-[Pen][NMeR]SDTL[Pen][Phe(4-tBu)][β3hE][dK]-NH2; disulfide 1-7) | 1000 to 10000 nM
7 | CC(=O)N[C@@H]1C(=O)N(C)[C@@H](CCCNC(=N)N)C(=O)N[C@@H](CO)C(=O)N[C@@H](CC(=O)O)C(=O)N[C@@H]([C@@H](C)O)C(=O)N[C@@H](CC(C)C)C(=O)N[C@H](C(=O)N[C@@H](Cc2ccc(Cl)cc2Cl)C(=O)N[C@H](CCC(=O)O)C(=O)N[C@H](CCCCNC(=O)COCC(=O)NCCCC[C@@H](NC(=O)[C@@H](CCC(=O)O)NC(=O)[C@H](Cc2ccc(Cl)cc2Cl)NC(=O)[C@H]2NC(=O)[C@H](CC(C)C)NC(=O)[C@H]([C@@H](C)O)NC(=O)[C@H](CC(=O)O)NC(=O)[C@H](CO)NC(=O)[C@H](CCCNC(=N)N)N(C)C(=O)[C@@H](NC(C)=O)C(C)(C)SSC2(C)C)C(N)=O)C(N)=O)C(C)(C)SSC1(C)C [compound 101] (I: Ac-[Pen][NMeR]SDTL[Pen][Phe(2,4-Cl2)][dE][dK]-NH2 / II: Ac-[Pen][NMeR]SDTL[Pen][Phe(2,4-Cl2)][dE][dK]-NH2; disulfide I:1-I:7, II:1-II:7; linker I:10-II:10 via Diglycolyl) | 50 to 100 nM
8 | CC(=O)N[C@@H]1C(=O)N(C)[C@@H](CCCNC(=N)N)C(=O)N[C@@H](CO)C(=O)N[C@@H](CC(=O)O)C(=O)N[C@@H]([C@@H](C)O)C(=O)N[C@@H](CC(C)C)C(=O)N[C@H](C(=O)N[C@@H](Cc2c[nH]c3ccccc23)C(=O)N[C@H](CCC(=O)O)C(=O)N[C@H](CCCCNC(=O)CN(CC(=O)NCCCC[C@@H](NC(=O)[C@@H](CCC(=O)O)NC(=O)[C@H](Cc2c[nH]c3ccccc23)NC(=O)[C@H]2NC(=O)[C@H](CC(C)C)NC(=O)[C@H]([C@@H](C)O)NC(=O)[C@H](CC(=O)O)NC(=O)[C@H](CO)NC(=O)[C@H](CCCNC(=N)N)N(C)C(=O)[C@@H](NC(C)=O)C(C)(C)SSC2(C)C)C(N)=O)C(=O)CCNC(=O)CCCCC2SCC3NC(=O)NC32)C(N)=O)C(C)(C)SSC1(C)C (stereo partly drawn) [compound 71] | 25 to 50 nM
9 | CC(=O)N[C@@H]1C(=O)N(C)[C@@H](CCCNC(=N)N)C(=O)N[C@@H](CO)C(=O)N[C@@H](CC(=O)O)C(=O)N[C@@H]([C@@H](C)O)C(=O)N[C@@H](CC(C)C)C(=O)N[C@H](C(=O)N[C@@H](Cc2c[nH]c3ccccc23)C(=O)N2CCC[C@H]2C(=O)N[C@H](CCCCNC(=O)COCC(=O)NCCCC[C@@H](NC(=O)[C@@H]2CCCN2C(=O)[C@H](Cc2c[nH]c3ccccc23)NC(=O)[C@H]2NC(=O)[C@H](CC(C)C)NC(=O)[C@H]([C@@H](C)O)NC(=O)[C@H](CC(=O)O)NC(=O)[C@H](CO)NC(=O)[C@H](CCCNC(=N)N)N(C)C(=O)[C@@H](NC(C)=O)C(C)(C)SSC2(C)C)C(N)=O)C(N)=O)C(C)(C)SSC1(C)C [compound 94] (I: Ac-[Pen][NMeR]SDTL[Pen]WP[dK]-NH2 / II: Ac-[Pen][NMeR]SDTL[Pen]WP[dK]-NH2; disulfide I:1-I:7, II:1-II:7; linker I:10-II:10 via Diglycolyl) | 100 to 500 nM
10 | CCCCCCCCCCCCCC(=O)N[C@@H]1C(=O)N(C)[C@@H](CCCNC(=N)N)C(=O)N[C@@H](CO)C(=O)N[C@@H](CC(=O)O)C(=O)N[C@@H]([C@@H](C)O)C(=O)N[C@@H](CC(C)C)C(=O)N[C@H](C(=O)N[C@@H](Cc2ccc(C(C)(C)C)cc2)C(=O)N[C@@H](CCC(=O)O)CC(=O)N[C@H](CCCCN)C(N)=O)C(C)(C)SSC1(C)C [compound 181] (Myristoyl-[Pen][NMeR]SDTL[Pen][Phe(4-tBu)][β3hE][dK]-NH2; disulfide 1-7) | 1000 to 10000 nM
11 | CC(=O)N[C@@H]1C(=O)N(C)[C@@H](CCCNC(=N)N)C(=O)N[C@@H](CO)C(=O)N[C@@H](CC(=O)O)C(=O)N[C@@H]([C@@H](C)O)C(=O)N[C@@H](CC(C)C)C(=O)N[C@H](C(=O)N[C@@H](Cc2c[nH]c3ccccc23)C(=O)N[C@@H](Cc2ccc(C(=O)O)cc2)C(=O)N[C@H](CCCCNC(=O)COCC(=O)NCCCC[C@@H](NC(=O)[C@H](Cc2ccc(C(=O)O)cc2)NC(=O)[C@H](Cc2c[nH]c3ccccc23)NC(=O)[C@H]2NC(=O)[C@H](CC(C)C)NC(=O)[C@H]([C@@H](C)O)NC(=O)[C@H](CC(=O)O)NC(=O)[C@H](CO)NC(=O)[C@H](CCCNC(=N)N)N(C)C(=O)[C@@H](NC(C)=O)C(C)(C)SSC2(C)C)C(N)=O)C(N)=O)C(C)(C)SSC1(C)C [compound 105] (I: Ac-[Pen][NMeR]SDTL[Pen]W[Phe(4-COOH)][dK]-NH2 / II: Ac-[Pen][NMeR]SDTL[Pen]W[Phe(4-COOH)][dK]-NH2; disulfide I:1-I:7, II:1-II:7; linker I:10-II:10 via Diglycolyl) | 50 to 100 nM
12 | CC(=O)N[C@@H]1C(=O)N(C)[C@@H](CCCNC(=N)N)C(=O)N[C@@H](CO)C(=O)N[C@@H](CC(=O)O)C(=O)N[C@@H]([C@@H](C)O)C(=O)N[C@@H](CC(C)C)C(=O)N[C@H](C(=O)N[C@@H](Cc2ccc(C(C)(C)C)cc2)C(=O)N[C@H](CCC(=O)O)C(=O)N[C@H](CCCCNC(=O)COCC(=O)NCCCC[C@@H](NC(=O)[C@@H](CCC(=O)O)NC(=O)[C@H](Cc2ccc(C(C)(C)C)cc2)NC(=O)[C@H]2NC(=O)[C@H](CC(C)C)NC(=O)[C@H]([C@@H](C)O)NC(=O)[C@H](CC(=O)O)NC(=O)[C@H](CO)NC(=O)[C@H](CCCNC(=N)N)N(C)C(=O)[C@@H](NC(C)=O)C(C)(C)SSC2(C)C)C(N)=O)C(N)=O)C(C)(C)SSC1(C)C [compound 106] (I: Ac-[Pen][NMeR]SDTL[Pen][Phe(4-tBu)][dE][dK]-NH2 / II: Ac-[Pen][NMeR]SDTL[Pen][Phe(4-tBu)][dE][dK]-NH2; disulfide I:1-I:7, II:1-II:7; linker I:10-II:10 via Diglycolyl) | < 10 nM
